These results are taken from patent publication US12115178B2, “Acylated active agents and methods of their use for the treatment of autoimmune disorders” (Flagship Pioneering Innovations V, Inc., priority 2018, dated 2024).

A short description of data set [1]: Assay 3. In vitro Colonic Material Stability Assay. It is filed as in vitro ADME. The following applies: colonic material slurry, anaerobic, 1 or 10 μM.
Data set [2] relates to type II collagen arthritis. Kind of data set: In vivo rheumatoid arthritis model (semi-established type II collagen arthritis). Further details: species or system Lewis rats. The conditions noted are these: for Mean Ankle Diameter AUC (mm*day) / Mean Ankle Periosteal Bone width (um) / Mean Knee Inflammation score (0-5) / Mean Terminal hind paw weights / Mean body weight change, day −1 to 21 (%) / Relative Spleen to Body Weight (Mean) / Mean Ankle Bone Resorption score (0-5) / Mean Ankle Cartilage Damage score (0-5) / Mean Ankle Pannus score (0-5) / Mean Ankle Periosteal Bone score (0-5) / Mean Ankle inflammation score (0-5) / Mean Knee Bone Resorption score (0-5) / Mean Knee Cartilage Damage score (0-5) / Mean Knee Pannus score (0-5) / Serum IgG: rats; for Mean Ankle Bone Resorption score (0-5) / Mean Ankle Cartilage Damage score (0-5) / Mean Ankle Pannus score (0-5) / Mean Ankle Periosteal Bone score (0-5) / Mean Ankle inflammation score (0-5) / Mean Knee Bone Resorption score (0-5) / Mean Knee Cartilage Damage score (0-5) / Mean Knee Pannus score (0-5): 0 = normal, 5 = severe; for Serum IgG: terminal serum ELISA for anti-type II collagen antibodies. How it is done: A study was conducted to determine the efficacy of test articles dosed by the oral (PO) route for inhibition of the inflammation (paw swelling), cartilage destruction, and bone resorption that occurs in semi-established type II collagen arthritis in female Lewis rats. Rats (10 per group) were injected intradermally (ID) with porcine type II collagen to induce arthritis; one group of rats (4 per group) served as vehicle-treated naïve controls. […] Positive controls were treated PO, BID with the reference compound Tofacitinib citrate (10 mg/kg). The rats were euthanized for necropsy on study day 21 (animals #1-5 in each group, animals #1-2 in naïve group) or 22 (animals #6-10 in each group, animals #3-4 in naïve group). Efficacy evaluation was based on animal body weights (Table 9), daily ankle caliper measurements (FIG. 4), ankle diameter expressed as area under the curve (AUC) (Table 10), terminal hind paw weights (Table 11), histopathologic evaluation of hind paws (Ankle Inflammation score: Table 12, Ankle Pannus score: Table 13, Ankle Cartilage Damage score: Table 14, Ankle Bone Resorption score: Table 15, Ankle Periosteal Bone score: Table 16, Ankle Periosteal Bone Width: Table 17) and knees (Knee Inflammation score: Table 18, Knee Pannus score: Table 19, Knee Cartilage Damage score: Table 20, Knee Bone Resorption score: Table 21), and relative spleen to body weight ratio (Table 22). Terminal serum was analyzed by enzyme-linked immunosorbent assay (ELISA) for anti-type II collagen antibodies (IgG) (Table 23). […] Statistics were conducted using ordinary one-way ANOVA with Dunnett's multiple comparison correction in GraphPad Prism.

Data set [3] in a line: Assay 2. Stability in Simulated Intestinal Fluid (SIF). Type of data set: in vitro ADME. The following applies: SIF pH 6.7 with pancreatin, 1 μM, 37° C. In outline:
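Degradation rates came from LC/MS of acetonitrile-quenched samples drawn at intervals, starting at T0. The medium was freshly made pH 6.7 FaSSIF containing pancreatin, and test compound was present at 1 µM while being shaken at 37 °C.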

Data set [4] relates to naïve CD4+ T cells. Kind of data set: Human regulatory T cell differentiation assay. It is filed as cell-based. The following applies: 6 days. The method, then:
Peripheral blood mononuclear cells (PBMCs) from whole blood donated by health volunteers were separated by Ficoll-Paque gradient centrifugation and naïve CD4^+ T cells were subsequently isolated using magnet beads (EasySep™ Human Naïve CD4^+ T Cell Isolation Kit, Cambridge, MA). For regulatory T cell (Treg) differentiation assay, naïve CD4^+ T cells were cultured (1-10×10^4 cells) in CTS OpTmizer medium for 6 days and stimulated with 5 ng/ml TGF-β, 100 U/ml IL-2, and ImmunoCult™ Human […] T Cell Activator; Stemcell #10990) with/without our Compounds. Cell viability was determined using a viability dye (eBioscience Fixable Viability Dye eFluor 780: ThermoFisher 65-0865-14) at 1:500 dilution. The cells were gated for Treg, defined as Live, CD11c^−, CD14^−, CD19^−, CD8^−, CD4^+, CD3^+, CD25^+, FOXP3^+. Percent (%) Tregs were calculated as percentage of CD4^+, CD25^+, FOXP3^+ cells over total CD4 T cells. Statistical analysis was performed with GraphPad Prism Software Using One-Way ANOVA.

Counter-ions that a name gives are not always drawn.

Take `CCCC(=O)Oc1cc(C(=O)O)cc(OC(=O)CCC)c1OC(=O)CCC` [Compound 45, 3,4,5-tris(butyryloxy)benzoic acid]: in data set [1], the “Assay 3 (% Remaining at 24 h)” value is “A (<25% of the tested compound remaining)”. In data set [2] (500 mg/kg PO BID), the “Mean Ankle Diameter AUC (mm*day)” value is listed as 94.20 mm*day, the “Mean Ankle Periosteal Bone width (um)” value is reported as 630.00 um, the “Mean Knee Inflammation score (0-5)” value was found to be 5.25 and the “Mean Terminal hind paw weights” value turned out to be 2.3988 g. Further, in data set [2] (500 mg/kg PO BID), the “Mean body weight change, day −1 to 21 (%)” value is −6.3%; the “Relative Spleen to Body Weight (Mean)” value turned out to be 0.2534; the “Mean Ankle Bone Resorption score (0-5)” value was found to be 3.48; the “Mean Ankle Cartilage Damage score (0-5)” value was determined as 4.20. In data set [2] (500 mg/kg PO BID), the “Mean Ankle Pannus score (0-5)” value came out at 3.48, the “Mean Ankle Periosteal Bone score (0-5)” value turned out to be 3.38, the “Mean Ankle inflammation score (0-5)” value turned out to be 2.3988 and the “Mean Knee Bone Resorption score (0-5)” value is 2.40. For the same compound, in data set [2] (500 mg/kg PO BID), the “Mean Knee Cartilage Damage score (0-5)” value was found to be 3.63, the “Mean Knee Pannus score (0-5)” value amounted to 2.48 and the “Serum IgG” value was determined as 5431.64 µg/mL. For the same compound, the “Assay 2 (SIF) (% @ Remaining 4 hours)” value in data set [3] is “A (<25% of the tested compound remaining)”.
On to `C[C@@H]1CCN(C(=O)CC#N)C[C@@H]1N(C)c1ncnc2[nH]ccc12` [Tofacitinib citrate, reference compound], for which, in data set [2] (10 mg/kg PO BID), the “Mean Ankle Diameter AUC (mm*day)” value was determined as 73.82 mm*day, the “Mean Ankle Periosteal Bone width (um)” value is 0.00 um, the “Mean Knee Inflammation score (0-5)” value was 0.10 and the “Mean Terminal hind paw weights” value is recorded as 1.4321 g. Besides, in data set [2] (10 mg/kg PO BID), the “Mean body weight change, day −1 to 21 (%)” value amounted to 20.2%; the “Relative Spleen to Body Weight (Mean)” value amounted to 0.1796; the “Mean Ankle Bone Resorption score (0-5)” value was found to be 0.00; the “Mean Ankle Cartilage Damage score (0-5)” value turned out to be 0.00. In data set [2] (10 mg/kg PO BID), the “Mean Ankle Pannus score (0-5)” value amounted to 0.00, the “Mean Ankle Periosteal Bone score (0-5)” value is on record as 0.00, the “Mean Ankle inflammation score (0-5)” value worked out at 1.4321 and the “Mean Knee Bone Resorption score (0-5)” value amounted to 0.00. In data set [2] (10 mg/kg PO BID), the “Mean Knee Cartilage Damage score (0-5)” value was found to be 0.00, the “Mean Knee Pannus score (0-5)” value amounted to 0.00 and the “Serum IgG” value was 2524.70 µg/mL.
As to `CCCC(=O)Oc1cc(OC(=O)CCC)c2c(=O)c(OC(=O)CCC)c(-c3ccc(OC(=O)CCC)c(OC(=O)CCC)c3)oc2c1` [Compound 5, [2-butanoyloxy-4-[3,5,7-tri(butanoyloxy)-4-oxo-chromen-2-yl]phenyl]butanoate], in data set [2] (100 mg/kg PO BID), the “Mean Ankle Diameter AUC (mm*day)” value came out at 89.38 mm*day, the “Mean Ankle Periosteal Bone width (um)” value is on record as 510.30 um, the “Mean Knee Inflammation score (0-5)” value is 5.23 and the “Mean Terminal hind paw weights” value is on record as 2.3990 g. Moreover, in data set [2] (100 mg/kg PO BID), the “Mean body weight change, day −1 to 21 (%)” value is −7.1%; the “Relative Spleen to Body Weight (Mean)” value is 0.2453; the “Mean Ankle Bone Resorption score (0-5)” value amounted to 2.53; the “Mean Ankle Cartilage Damage score (0-5)” value stood at 3.55. In addition, in data set [2] (100 mg/kg PO BID), the “Mean Ankle Pannus score (0-5)” value came out at 2.53, the “Mean Ankle Periosteal Bone score (0-5)” value is listed as 2.68, the “Mean Ankle inflammation score (0-5)” value was determined as 2.3990 and the “Mean Knee Bone Resorption score (0-5)” value was determined as 2.08. Further, in data set [2] (100 mg/kg PO BID), the “Mean Knee Cartilage Damage score (0-5)” value was found to be 2.93, the “Mean Knee Pannus score (0-5)” value amounted to 2.08 and the “Serum IgG” value came out at 5937.67 µg/mL. For the same compound, in data set [2] (500 mg/kg PO BID), the “Mean Ankle Diameter AUC (mm*day)” value is reported as 93.57 mm*day, the “Mean Ankle Periosteal Bone width (um)” value came to 699.30 um, the “Mean Knee Inflammation score (0-5)” value was determined as 5.65 and the “Mean Terminal hind paw weights” value was 2.3994 g. In data set [2] (500 mg/kg PO BID), the “Mean body weight change, day −1 to 21 (%)” value is recorded as −10.1%; the “Relative Spleen to Body Weight (Mean)” value is 0.2534; the “Mean Ankle Bone Resorption score (0-5)” value came to 3.33; the “Mean Ankle Cartilage Damage score (0-5)” value was found to be 4.45. For the same compound, in data set [2] (500 mg/kg PO BID), the “Mean Ankle Pannus score (0-5)” value is given as 3.33, the “Mean Ankle Periosteal Bone score (0-5)” value turned out to be 3.70, the “Mean Ankle inflammation score (0-5)” value is given as 2.3994 and the “Mean Knee Bone Resorption score (0-5)” value is given as 2.65. Besides, in data set [2] (500 mg/kg PO BID), the “Mean Knee Cartilage Damage score (0-5)” value amounted to 4.00, the “Mean Knee Pannus score (0-5)” value was 2.65 and the “Serum IgG” value worked out at 5350.41 µg/mL. Moreover, the “effects on spleen weights relative to body weight, ankle diameter AUC, ankle pannus score, ankle bone resorption score, and ankle periosteal bone score” value in data set [2] (rat collagen arthritis, PO BID) is “significant beneficial effects”. Moreover, the “Assay 2 (SIF) (% @ Remaining 4 hours)” value in data set [3] was “B (25-75% of the tested compound remaining)”.
`CC(=O)O` [Acetic acid, acetic acid]: the “Cell viability % DMSO” value in data set [4] (1 mM) and in data set [4] (3 mM) was “= (90%> <110%: =)” in each case.
As for `CCC(=O)O` [Propionic acid], in data set [4] (3 mM), the “Cell viability % DMSO” value was “= (90%> <110%: =)”.
